Measurements from publication PMC5513037, “Examining the influence of specificity ligands and ATP-competitive ligands on the overall effectiveness of bivalent kinase inhibitors” (Proteome Science, 2017).

Assays:
Experiment in all cases: KAM-matrix competition in K562 lysate;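 on 0.001 uM KAM: median log10 fold change of treatment over DMSO control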;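 on 0.01 uM KAM: median log10 fold change of treatment over DMSO control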;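 on 0.1 uM KAM: median log10 fold change of treatment over DMSO control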;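 on 1 uM KAM: median log10 fold change of treatment over DMSO control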;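 on 10 uM KAM: median log10 fold change of treatment over DMSO control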
Assay type in all cases: binding
[1] = target: T1, MAP4K4 (Homo sapiens, UniProt O95819);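 on 0.001 uM KAM: median log10 fold change of treatment over DMSO control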;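 on 0.01 uM KAM: median log10 fold change of treatment over DMSO control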;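 on 0.1 uM KAM: median log10 fold change of treatment over DMSO control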;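 on 1 uM KAM: median log10 fold change of treatment over DMSO control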;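 on 10 uM KAM: median log10 fold change of treatment over DMSO control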
T1 construct: endogenous in cells; host or cells: K562
T1 sequence (O95819 whole entry): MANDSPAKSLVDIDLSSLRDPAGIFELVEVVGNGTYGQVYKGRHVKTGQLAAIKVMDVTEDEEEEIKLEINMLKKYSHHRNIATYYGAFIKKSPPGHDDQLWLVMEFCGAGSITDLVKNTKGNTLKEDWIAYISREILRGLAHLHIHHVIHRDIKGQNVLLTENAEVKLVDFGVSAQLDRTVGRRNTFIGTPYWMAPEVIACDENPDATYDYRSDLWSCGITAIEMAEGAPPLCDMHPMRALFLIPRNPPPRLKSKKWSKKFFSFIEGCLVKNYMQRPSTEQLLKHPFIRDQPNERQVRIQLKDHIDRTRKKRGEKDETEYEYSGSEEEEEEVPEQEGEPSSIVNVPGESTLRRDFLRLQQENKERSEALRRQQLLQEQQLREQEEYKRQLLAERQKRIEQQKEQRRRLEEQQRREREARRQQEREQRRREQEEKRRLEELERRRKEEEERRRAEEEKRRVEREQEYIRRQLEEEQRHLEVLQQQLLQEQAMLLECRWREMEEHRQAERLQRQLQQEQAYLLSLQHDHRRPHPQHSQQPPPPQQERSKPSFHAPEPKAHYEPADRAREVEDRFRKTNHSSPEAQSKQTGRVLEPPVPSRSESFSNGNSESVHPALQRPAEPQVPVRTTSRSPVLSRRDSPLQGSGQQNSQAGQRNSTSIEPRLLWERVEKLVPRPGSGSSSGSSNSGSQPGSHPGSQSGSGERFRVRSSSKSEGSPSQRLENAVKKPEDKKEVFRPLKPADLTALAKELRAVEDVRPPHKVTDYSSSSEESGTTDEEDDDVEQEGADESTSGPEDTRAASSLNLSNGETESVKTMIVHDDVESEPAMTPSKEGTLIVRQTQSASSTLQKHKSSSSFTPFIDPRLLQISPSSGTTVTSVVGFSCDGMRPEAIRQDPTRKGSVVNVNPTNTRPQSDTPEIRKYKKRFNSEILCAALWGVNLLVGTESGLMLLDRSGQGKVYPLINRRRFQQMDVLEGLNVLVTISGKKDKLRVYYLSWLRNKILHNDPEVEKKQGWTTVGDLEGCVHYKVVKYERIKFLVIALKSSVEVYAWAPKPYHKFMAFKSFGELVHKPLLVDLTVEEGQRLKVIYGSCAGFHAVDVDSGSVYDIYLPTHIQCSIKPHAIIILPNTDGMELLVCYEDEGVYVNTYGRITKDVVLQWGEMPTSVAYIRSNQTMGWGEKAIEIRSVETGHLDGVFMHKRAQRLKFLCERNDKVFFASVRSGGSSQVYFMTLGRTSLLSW
Protocol: (§1) Supplement 12953_2017_125_MOESM1_ESM.zip/MS_Supp Info.xlsx, sheet "KAM" | column: 10 uM KAM; 1 uM KAM; 0.1 uM KAM; 0.01 uM KAM; 0.001 uM KAM; RB50

[2] = target: T2, EPHA2 (Homo sapiens, UniProt P29317);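 on 0.001 uM KAM: median log10 fold change of treatment over DMSO control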;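 on 0.01 uM KAM: median log10 fold change of treatment over DMSO control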;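 on 0.1 uM KAM: median log10 fold change of treatment over DMSO control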;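 on 1 uM KAM: median log10 fold change of treatment over DMSO control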;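 on 10 uM KAM: median log10 fold change of treatment over DMSO control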
T2 construct: endogenous in cells; host or cells: K562
T2 sequence (P29317 24-976): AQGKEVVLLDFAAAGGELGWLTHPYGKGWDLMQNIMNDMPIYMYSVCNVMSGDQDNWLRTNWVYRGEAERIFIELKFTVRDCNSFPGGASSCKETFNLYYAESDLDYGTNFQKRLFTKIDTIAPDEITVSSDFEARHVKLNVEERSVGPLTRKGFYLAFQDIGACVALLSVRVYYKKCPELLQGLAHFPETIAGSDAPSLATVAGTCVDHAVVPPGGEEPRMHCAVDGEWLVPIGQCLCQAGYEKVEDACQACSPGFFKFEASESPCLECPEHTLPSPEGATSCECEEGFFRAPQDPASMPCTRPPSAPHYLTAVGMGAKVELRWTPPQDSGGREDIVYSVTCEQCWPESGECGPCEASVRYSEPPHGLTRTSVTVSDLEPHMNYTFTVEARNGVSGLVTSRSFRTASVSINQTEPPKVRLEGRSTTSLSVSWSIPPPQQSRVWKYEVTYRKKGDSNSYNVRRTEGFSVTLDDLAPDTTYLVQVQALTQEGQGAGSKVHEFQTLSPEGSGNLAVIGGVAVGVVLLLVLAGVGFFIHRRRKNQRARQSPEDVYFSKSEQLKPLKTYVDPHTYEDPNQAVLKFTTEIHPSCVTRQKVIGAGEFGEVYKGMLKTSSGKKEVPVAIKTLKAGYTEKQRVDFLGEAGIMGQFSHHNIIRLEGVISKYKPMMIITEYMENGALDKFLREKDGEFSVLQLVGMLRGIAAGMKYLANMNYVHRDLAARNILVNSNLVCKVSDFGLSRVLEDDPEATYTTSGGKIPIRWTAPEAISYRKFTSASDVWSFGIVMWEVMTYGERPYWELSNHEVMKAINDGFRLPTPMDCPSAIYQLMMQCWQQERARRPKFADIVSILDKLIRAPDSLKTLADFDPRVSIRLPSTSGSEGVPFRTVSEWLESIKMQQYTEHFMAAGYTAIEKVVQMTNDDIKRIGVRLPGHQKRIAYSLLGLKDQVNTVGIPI
Protocol: as §1

[3] = target: T3, GUCY2F (Homo sapiens, UniProt P51841);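 on 0.001 uM KAM: median log10 fold change of treatment over DMSO control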;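 on 0.01 uM KAM: median log10 fold change of treatment over DMSO control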;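 on 0.1 uM KAM: median log10 fold change of treatment over DMSO control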;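 on 1 uM KAM: median log10 fold change of treatment over DMSO control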;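 on 10 uM KAM: median log10 fold change of treatment over DMSO control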
T3 construct: endogenous in cells; host or cells: K562
T3 sequence (P51841 51-1108): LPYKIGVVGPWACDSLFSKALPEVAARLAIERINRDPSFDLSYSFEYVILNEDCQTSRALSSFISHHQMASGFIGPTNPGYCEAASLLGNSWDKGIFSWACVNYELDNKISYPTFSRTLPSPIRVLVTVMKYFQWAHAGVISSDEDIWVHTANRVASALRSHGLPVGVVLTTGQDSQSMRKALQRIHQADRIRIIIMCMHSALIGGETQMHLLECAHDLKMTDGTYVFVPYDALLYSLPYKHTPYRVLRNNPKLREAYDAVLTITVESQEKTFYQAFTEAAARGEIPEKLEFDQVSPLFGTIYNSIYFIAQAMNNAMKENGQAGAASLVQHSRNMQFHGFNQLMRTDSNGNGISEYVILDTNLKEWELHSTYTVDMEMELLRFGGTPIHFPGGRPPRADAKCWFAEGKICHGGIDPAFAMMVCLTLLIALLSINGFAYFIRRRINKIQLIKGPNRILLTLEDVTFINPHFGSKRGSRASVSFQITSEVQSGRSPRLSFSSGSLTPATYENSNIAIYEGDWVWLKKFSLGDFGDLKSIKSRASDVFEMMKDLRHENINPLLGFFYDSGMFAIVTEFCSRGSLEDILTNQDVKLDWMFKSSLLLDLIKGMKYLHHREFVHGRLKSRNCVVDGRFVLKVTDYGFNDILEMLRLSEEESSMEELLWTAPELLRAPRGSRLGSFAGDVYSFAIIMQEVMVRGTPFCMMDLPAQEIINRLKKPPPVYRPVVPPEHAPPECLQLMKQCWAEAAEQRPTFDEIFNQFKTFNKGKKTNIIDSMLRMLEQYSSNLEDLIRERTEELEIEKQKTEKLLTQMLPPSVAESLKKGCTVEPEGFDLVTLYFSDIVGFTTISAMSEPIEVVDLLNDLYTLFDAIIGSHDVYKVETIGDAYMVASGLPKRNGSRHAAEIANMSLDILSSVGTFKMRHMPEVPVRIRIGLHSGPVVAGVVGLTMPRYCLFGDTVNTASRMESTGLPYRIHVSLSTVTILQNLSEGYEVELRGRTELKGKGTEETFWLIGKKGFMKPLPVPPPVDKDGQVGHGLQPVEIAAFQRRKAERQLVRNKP
Protocol: as §1

[4] = target: T4, FLT1 (Homo sapiens, UniProt P17948);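 on 0.001 uM KAM: median log10 fold change of treatment over DMSO control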;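 on 0.01 uM KAM: median log10 fold change of treatment over DMSO control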;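 on 0.1 uM KAM: median log10 fold change of treatment over DMSO control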;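 on 1 uM KAM: median log10 fold change of treatment over DMSO control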;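 on 10 uM KAM: median log10 fold change of treatment over DMSO control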
T4 construct: endogenous in cells; host or cells: K562
T4 sequence (P17948 27-1338): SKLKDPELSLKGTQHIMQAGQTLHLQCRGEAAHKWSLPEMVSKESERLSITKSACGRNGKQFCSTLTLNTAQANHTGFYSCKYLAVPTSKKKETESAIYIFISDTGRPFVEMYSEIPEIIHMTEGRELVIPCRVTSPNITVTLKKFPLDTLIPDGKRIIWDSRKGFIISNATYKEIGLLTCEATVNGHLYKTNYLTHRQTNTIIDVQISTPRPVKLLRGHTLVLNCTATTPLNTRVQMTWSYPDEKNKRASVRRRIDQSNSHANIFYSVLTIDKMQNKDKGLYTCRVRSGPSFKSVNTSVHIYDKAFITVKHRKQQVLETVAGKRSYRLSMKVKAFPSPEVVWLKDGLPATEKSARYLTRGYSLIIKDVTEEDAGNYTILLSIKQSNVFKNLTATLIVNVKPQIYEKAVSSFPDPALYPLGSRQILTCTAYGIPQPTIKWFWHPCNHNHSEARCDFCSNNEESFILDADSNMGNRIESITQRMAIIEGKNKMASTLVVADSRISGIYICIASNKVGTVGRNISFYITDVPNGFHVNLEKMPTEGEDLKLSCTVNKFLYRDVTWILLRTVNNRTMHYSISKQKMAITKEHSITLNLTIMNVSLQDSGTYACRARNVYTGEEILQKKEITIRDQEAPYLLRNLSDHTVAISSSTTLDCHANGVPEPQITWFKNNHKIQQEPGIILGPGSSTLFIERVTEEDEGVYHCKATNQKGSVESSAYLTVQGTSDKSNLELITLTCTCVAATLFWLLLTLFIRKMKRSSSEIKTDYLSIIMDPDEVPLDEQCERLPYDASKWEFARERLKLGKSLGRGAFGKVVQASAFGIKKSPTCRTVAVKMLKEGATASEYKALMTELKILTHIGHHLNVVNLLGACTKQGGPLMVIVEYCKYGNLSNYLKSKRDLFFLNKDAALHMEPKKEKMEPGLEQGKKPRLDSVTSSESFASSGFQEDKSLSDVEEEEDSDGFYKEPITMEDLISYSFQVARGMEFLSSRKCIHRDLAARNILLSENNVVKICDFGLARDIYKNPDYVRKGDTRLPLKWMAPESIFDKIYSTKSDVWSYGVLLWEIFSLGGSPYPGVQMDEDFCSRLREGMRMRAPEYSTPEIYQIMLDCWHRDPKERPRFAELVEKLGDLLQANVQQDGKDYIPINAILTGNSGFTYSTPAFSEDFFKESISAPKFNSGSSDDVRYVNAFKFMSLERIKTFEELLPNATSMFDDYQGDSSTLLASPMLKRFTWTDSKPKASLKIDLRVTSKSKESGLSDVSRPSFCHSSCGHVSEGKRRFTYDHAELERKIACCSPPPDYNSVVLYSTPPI
Protocol: as §1

[5] = target: T5, TAOK2 (Homo sapiens, UniProt Q9UL54);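 on 0.001 uM KAM: median log10 fold change of treatment over DMSO control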;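 on 0.01 uM KAM: median log10 fold change of treatment over DMSO control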;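 on 0.1 uM KAM: median log10 fold change of treatment over DMSO control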;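 on 1 uM KAM: median log10 fold change of treatment over DMSO control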;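 on 10 uM KAM: median log10 fold change of treatment over DMSO control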
T5 construct: endogenous in cells; host or cells: K562
T5 sequence (Q9UL54 1-1235): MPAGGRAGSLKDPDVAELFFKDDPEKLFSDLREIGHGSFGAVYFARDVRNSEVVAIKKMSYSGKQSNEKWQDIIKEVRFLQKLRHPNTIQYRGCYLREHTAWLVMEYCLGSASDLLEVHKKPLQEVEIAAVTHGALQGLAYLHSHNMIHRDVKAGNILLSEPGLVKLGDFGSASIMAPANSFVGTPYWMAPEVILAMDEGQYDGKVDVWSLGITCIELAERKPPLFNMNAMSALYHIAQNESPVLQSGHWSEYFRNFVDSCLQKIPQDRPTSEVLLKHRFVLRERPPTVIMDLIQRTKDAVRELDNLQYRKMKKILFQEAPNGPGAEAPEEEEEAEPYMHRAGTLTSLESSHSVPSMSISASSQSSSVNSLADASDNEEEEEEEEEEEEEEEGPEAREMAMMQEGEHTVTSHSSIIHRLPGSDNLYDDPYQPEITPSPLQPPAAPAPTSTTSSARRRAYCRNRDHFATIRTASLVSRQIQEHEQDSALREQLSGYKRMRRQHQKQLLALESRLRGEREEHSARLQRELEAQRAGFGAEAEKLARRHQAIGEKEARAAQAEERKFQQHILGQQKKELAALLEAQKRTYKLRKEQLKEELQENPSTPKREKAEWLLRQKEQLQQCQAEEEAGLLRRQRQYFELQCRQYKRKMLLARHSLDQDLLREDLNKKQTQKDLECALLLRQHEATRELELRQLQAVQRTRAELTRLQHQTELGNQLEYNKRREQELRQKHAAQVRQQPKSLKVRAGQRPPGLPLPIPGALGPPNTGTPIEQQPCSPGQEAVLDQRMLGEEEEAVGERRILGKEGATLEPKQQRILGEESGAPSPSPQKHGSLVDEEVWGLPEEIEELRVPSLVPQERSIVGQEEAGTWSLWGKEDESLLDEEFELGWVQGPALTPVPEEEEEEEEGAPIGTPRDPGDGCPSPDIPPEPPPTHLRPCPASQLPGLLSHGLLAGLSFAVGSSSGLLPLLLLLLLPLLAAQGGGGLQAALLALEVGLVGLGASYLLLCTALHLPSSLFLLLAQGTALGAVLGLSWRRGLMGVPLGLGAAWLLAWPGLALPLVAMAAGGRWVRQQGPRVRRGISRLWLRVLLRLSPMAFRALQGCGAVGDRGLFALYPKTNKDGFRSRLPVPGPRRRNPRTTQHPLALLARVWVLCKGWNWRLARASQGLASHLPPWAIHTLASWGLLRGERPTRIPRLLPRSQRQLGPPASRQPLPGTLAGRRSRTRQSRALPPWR
Protocol: as §1

[6] = KAM 0.001-10 uM, read-out: RB50 (the source's name)

## N#CCc1ccc(Nc2nc(NCCCN)cc(Nc3cc(C4CC4)[nH]n3)n2)cc1 [KAM]
[1]; [6]
  IC50: > 10 µM
[1]; relative to 0 uM KAM = 0
  0.001 uM KAM: -0.04181
  0.01 uM KAM: -0.007384
  0.1 uM KAM: -0.1078
  1 uM KAM: -0.1201
  10 uM KAM: -0.1434
[2]; [6]
  IC50: > 10 µM
[2]; relative to 0 uM KAM = 0
  0.001 uM KAM: -0.04778
  0.01 uM KAM: 0.0608
  0.1 uM KAM: 0.1233
  1 uM KAM: 0.3139
  10 uM KAM: 0.0956
[3]; [6]
  IC50: > 10 µM
[3]; relative to 0 uM KAM = 0
  0.001 uM KAM: -0.02463
  0.01 uM KAM: -0.02113
  0.1 uM KAM: 0.03818
  1 uM KAM: 0.1179
  10 uM KAM: -0.02163
[4]; [6]
  IC50: > 10 µM
[4]; relative to 0 uM KAM = 0
  0.001 uM KAM: -0.03836
  0.01 uM KAM: 0.0203
  0.1 uM KAM: -0.001012
  1 uM KAM: -0.1879
  10 uM KAM: -0.2168
[5]; [6]
  IC50: 6.63 µM
[5]; relative to 0 uM KAM = 0
  0.001 uM KAM: -0.0603
  0.01 uM KAM: -0.04102
  0.1 uM KAM: -0.1359
  1 uM KAM: -0.1664
  10 uM KAM: -0.2974
